Where “and” joins values, the source holds several entries; their conditions need not be identical. Identical values can stand only once.
Test system: 699152-130-R-J1-PDC complex spheroid growth
Experiment: Anticancer human tumor 699152-130-R-J1-PDC patient-derived pancreatic carcinoma cell line growth inhibition [AhR]
Conditions: for viability, T/C: stronger effect = lower value
Procedure, shortened: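 Agents were dosed in half-log steps down from roughly clinical Cmax, or from 10 microM where Cmax was unknown, alone and with AhR antagonists. Read-out: percent test/control growth of tumor spheroids containing HUVEC and MSC stromal cells.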

[1] = curve of first compound, second compound 0.1 µM
[2] = curve of first compound, second compound 0.316 µM
[3] = curve of first compound, second compound 1 µM
[4] = curve of first compound, second compound 3.16 µM
[5] = curve of first compound, second compound 10 µM
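Note: compound exposure lasted 7 days after spheroids had grown for 3 days.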

How did the IC50 [1] turn out when `CC1COCCN1c1cc(C2(S(C)(=N)=O)CC2)nc(-c2ccnc3[nH]ccc23)n1` (configuration not stated) + CC(CO)NC(=O)c1cc(-c2ccc(Cl)cc2)nn(-c2cnn(C)c2)c1=O was run?
The IC50 was > 10 µM.

What about the IC50 [2] of the same molecule?
Its IC50 is > 10 µM.

And the IC50 [3]?
Its IC50 is > 10 µM.

What about the IC50 [4] of the same molecule?
Its IC50 is > 10 µM.

And the IC50 [5]?
Its IC50 is > 10 µM.

And the viability, T/C (second compound 0.1 µM, first compound 0.0316 µM)?
The viability, T/C was 87.9%.

And the viability, T/C (second compound 0.1 µM, first compound 0.1 µM)?
Its viability, T/C is 95.5%.

And the viability, T/C (second compound 0.1 µM, first compound 0.316 µM)?
Its viability, T/C is 88.7%.

What about the viability, T/C (second compound 0.1 µM, first compound 1 µM) of the same molecule?
The viability, T/C was 94.5%.

And the viability, T/C (second compound 0.1 µM, first compound 3.16 µM)?
Its viability, T/C is 79.2%.

And the viability, T/C (second compound 0.1 µM, first compound 10 µM)?
The viability, T/C was 74.6%.

What about the viability, T/C (second compound 0.316 µM, first compound 0.0316 µM) of the same molecule?
Its viability, T/C is 108%.

And the viability, T/C (second compound 0.316 µM, first compound 0.1 µM)?
The viability, T/C was 94.2%.

What about the viability, T/C (second compound 0.316 µM, first compound 0.316 µM) of the same molecule?
Its viability, T/C is 101%.

And the viability, T/C (second compound 0.316 µM, first compound 1 µM)?
The viability, T/C was 85.8%.

What about the viability, T/C (second compound 0.316 µM, first compound 3.16 µM) of the same molecule?
Its viability, T/C is 85.5%.

And the viability, T/C (second compound 0.316 µM, first compound 10 µM)?
Its viability, T/C is 78.5%.

And the viability, T/C (second compound 1 µM, first compound 0.0316 µM)?
Its viability, T/C is 98.6%.

And the viability, T/C (second compound 1 µM, first compound 0.1 µM)?
The viability, T/C was 101%.

And the viability, T/C (second compound 1 µM, first compound 0.316 µM)?
Its viability, T/C is 94.3%.

And the viability, T/C (second compound 1 µM, first compound 1 µM)?
The viability, T/C was 87.9%.

And the viability, T/C (second compound 1 µM, first compound 3.16 µM)?
Its viability, T/C is 84%.

What about the viability, T/C (second compound 1 µM, first compound 10 µM) of the same molecule?
The viability, T/C was 68%.

And the viability, T/C (second compound 3.16 µM, first compound 0.0316 µM)?
The viability, T/C was 80.4%.

And the viability, T/C (second compound 3.16 µM, first compound 0.1 µM)?
The viability, T/C was 112%.

And the viability, T/C (second compound 3.16 µM, first compound 0.316 µM)?
Its viability, T/C is 88.5%.

What about the viability, T/C (second compound 3.16 µM, first compound 1 µM) of the same molecule?
Its viability, T/C is 86.4%.

And the viability, T/C (second compound 3.16 µM, first compound 3.16 µM)?
The viability, T/C was 73.4%.

What about the viability, T/C (second compound 3.16 µM, first compound 10 µM) of the same molecule?
Its viability, T/C is 62.8%.

What about the viability, T/C (second compound 10 µM, first compound 0.0316 µM) of the same molecule?
Its viability, T/C is 78.5%.

What about the viability, T/C (second compound 10 µM, first compound 0.1 µM) of the same molecule?
The viability, T/C was 82.2%.

What about the viability, T/C (second compound 10 µM, first compound 0.316 µM) of the same molecule?
Its viability, T/C is 91.3%.

And the viability, T/C (second compound 10 µM, first compound 1 µM)?
The viability, T/C was 76.4%.

What about the viability, T/C (second compound 10 µM, first compound 3.16 µM) of the same molecule?
Its viability, T/C is 72.5%.

What about the viability, T/C (second compound 10 µM, first compound 10 µM) of the same molecule?
Its viability, T/C is 68.2%.

With `Nc1ncn(C2CC(O)C(CO)S2)c(=O)n1` (configuration not stated) + Cc1cncc(-c2nc(NCCc3c[nH]c4ccccc34)c3ncn(C(C)C)c3n2)c1 as the molecule, how does the IC50 [1] read?
Its IC50 is > 0.3 µM.

And the IC50 [2]?
Its IC50 is > 0.3 µM.

What about the IC50 [3] of the same molecule?
Its IC50 is > 0.3 µM.

And the IC50 [4]?
The IC50 was > 0.3 µM.

And the IC50 [5]?
Its IC50 is < 0.000949 µM.

And the viability, T/C (second compound 0.1 µM, first compound 0.000949 µM)?
Its viability, T/C is 105%.

What about the viability, T/C (second compound 0.1 µM, first compound 0.003 µM) of the same molecule?
The viability, T/C was 93.8%.

And the viability, T/C (second compound 0.1 µM, first compound 0.00949 µM)?
Its viability, T/C is 99.9%.

And the viability, T/C (second compound 0.1 µM, first compound 0.03 µM)?
The viability, T/C was 99.5%.

What about the viability, T/C (second compound 0.1 µM, first compound 0.0949 µM) of the same molecule?
The viability, T/C was 90.8%.

And the viability, T/C (second compound 0.1 µM, first compound 0.3 µM)?
Its viability, T/C is 91.4%.

What about the viability, T/C (second compound 0.316 µM, first compound 0.000949 µM) of the same molecule?
The viability, T/C was 112%.

What about the viability, T/C (second compound 0.316 µM, first compound 0.003 µM) of the same molecule?
The viability, T/C was 95.9%.

And the viability, T/C (second compound 0.316 µM, first compound 0.00949 µM)?
Its viability, T/C is 97%.

And the viability, T/C (second compound 0.316 µM, first compound 0.03 µM)?
The viability, T/C was 103%.

What about the viability, T/C (second compound 0.316 µM, first compound 0.0949 µM) of the same molecule?
Its viability, T/C is 101%.

What about the viability, T/C (second compound 0.316 µM, first compound 0.3 µM) of the same molecule?
Its viability, T/C is 107%.

What about the viability, T/C (second compound 1 µM, first compound 0.000949 µM) of the same molecule?
The viability, T/C was 126%.

What about the viability, T/C (second compound 1 µM, first compound 0.003 µM) of the same molecule?
Its viability, T/C is 110%.

What about the viability, T/C (second compound 1 µM, first compound 0.00949 µM) of the same molecule?
The viability, T/C was 106%.

And the viability, T/C (second compound 1 µM, first compound 0.03 µM)?
The viability, T/C was 110%.

And the viability, T/C (second compound 1 µM, first compound 0.0949 µM)?
The viability, T/C was 113%.

What about the viability, T/C (second compound 1 µM, first compound 0.3 µM) of the same molecule?
The viability, T/C was 111%.

What about the viability, T/C (second compound 3.16 µM, first compound 0.000949 µM) of the same molecule?
Its viability, T/C is 91.6%.

What about the viability, T/C (second compound 3.16 µM, first compound 0.003 µM) of the same molecule?
Its viability, T/C is 88.8%.

What about the viability, T/C (second compound 3.16 µM, first compound 0.00949 µM) of the same molecule?
Its viability, T/C is 95.1%.

And the viability, T/C (second compound 3.16 µM, first compound 0.03 µM)?
The viability, T/C was 94.6%.

What about the viability, T/C (second compound 3.16 µM, first compound 0.0949 µM) of the same molecule?
The viability, T/C was 107%.

And the viability, T/C (second compound 3.16 µM, first compound 0.3 µM)?
Its viability, T/C is 104%.

What about the viability, T/C (second compound 10 µM, first compound 0.000949 µM) of the same molecule?
The viability, T/C was 23.9%.

What about the viability, T/C (second compound 10 µM, first compound 0.003 µM) of the same molecule?
The viability, T/C was 21%.

What about the viability, T/C (second compound 10 µM, first compound 0.00949 µM) of the same molecule?
The viability, T/C was 22.8%.

What about the viability, T/C (second compound 10 µM, first compound 0.03 µM) of the same molecule?
Its viability, T/C is 22.5%.

And the viability, T/C (second compound 10 µM, first compound 0.0949 µM)?
Its viability, T/C is 19.6%.

What about the viability, T/C (second compound 10 µM, first compound 0.3 µM) of the same molecule?
Its viability, T/C is 20.4%.

`COc1ccc([C@@H](O)c2cc(-c3ncnc4cc(N5CCOCC5)ccc34)c(F)cc2Cl)nn1` was tested. Which viability, T/C (compound 0.0316 µM) did it give?
Its viability, T/C is 94.1% and 90.8% and 102%.

What about the viability, T/C (compound 0.1 µM) of the same molecule?
Its viability, T/C is 93.3% and 98.1% and 115%.

What about the viability, T/C (compound 0.316 µM) of the same molecule?
The viability, T/C was 93.6% and 91.3% and 90.6%.

What about the viability, T/C (compound 1 µM) of the same molecule?
Its viability, T/C is 79.1% and 78.4% and 71.7%.

And the viability, T/C (compound 3.16 µM)?
Its viability, T/C is 60.8% and 57.4% and 59.3%.

What about the viability, T/C (compound 10 µM) of the same molecule?
The viability, T/C was 33.6% and 28.5% and 30.6%.

And the IC50 (curve of compound)?
The IC50 was 4.91 µM and 4.15 µM and 3.98 µM.
